Data as given in ChEMBL document CHEMBL1150508, “Benzopyran potassium channel activators related to cromakalim - amide replacements at position 4” (1993).

What was measured:
Assay type in all cases: functional, Artery
Details in all cases: route oral
Rattus norvegicus [1] = test: Maximum fall in systolic blood pressure at interval of 1 hour over a period of 1-6 hour after dose of 10 mg/kg (p.o.) in spontaneous hypertensive rat (SHR)
Rattus norvegicus [2] = test: Maximum fall in systolic blood pressure at interval of 1 hour over a period of 1-6 hour after dose 1.0 mg/kg (p.o.) in spontaneous hypertensive rat (SHR)
Rattus norvegicus [3] = test: Maximum fall in systolic blood pressure at interval of 1 hour over a period of 1-6 hour after dose of 0.3 mg/kg (p.o.) in spontaneous hypertensive rat (SHR); design: unit not given here
Rattus norvegicus [4] = test: Maximum fall in systolic blood pressure at interval of 1 hour over a period of 1-6 hour after dose of 1.0 mg/kg (p.o.) in spontaneous hypertensive rat (SHR); design: unit not given here
Rattus norvegicus [5] = test: Maximum fall in systolic blood pressure at interval of 1 hour over a period of 1-6 hour after dose of 0.1 mg/kg (p.o.) in spontaneous hypertensive rat (SHR)
Rattus norvegicus [6] = test: Maximum fall in systolic blood pressure at interval of 1 hour over a period of 1-6 hour after dose of 3.0 mg/kg (p.o.) in spontaneous hypertensive rat (SHR)

Q: Which “Max fall in blood pressure” value (Rattus norvegicus [1]) does the source give for `CC(C)(C)/N=C(/NC#N)NC1c2cc(C#N)ccc2OC(C)(C)C1O` (single isomer, unassigned) here?
A: The value was 10.

Q: What about the “Max fall in blood pressure” value (Rattus norvegicus [2]) of the same compound?
A: The value was 8.

Q: What does the source list for `CNC(=O)NC1c2cc(C#N)ccc2OC(C)(C)C1O` (single isomer, unassigned)?
A: Max fall in blood pressure (Rattus norvegicus [3]): 31; Max fall in blood pressure (Rattus norvegicus [4]): 61; Max fall in blood pressure (Rattus norvegicus [5]): 14

Q: `C/N=C(/NC(C)=O)NC1c2cc(C#N)ccc2OC(C)(C)C1O` (single isomer, unassigned) was tested. Which “Max fall in blood pressure” value (Rattus norvegicus [4]) did it give?
A: Its value is 17.

Q: For `C/N=C(\NC1c2cc(C#N)ccc2OC(C)(C)[C@H]1O)NS(N)(=O)=O` (stereo not given in full), which “Max fall in blood pressure” value (Rattus norvegicus [6]) is on record?
A: The value was 14.

Q: With `C/N=C(/NC(N)=O)NC1c2cc(C#N)ccc2OC(C)(C)C1O` (single isomer, unassigned) as the compound, how does the “Max fall in blood pressure” value (Rattus norvegicus [6]) read?
A: The value was 19.

Q: Which “Max fall in blood pressure” value (Rattus norvegicus [1]) does the source give for `CN/C(=C\[N+](=O)[O-])NC1c2cc(C#N)ccc2OC(C)(C)C1O` (single isomer, unassigned) here?
A: Its value is 12.

Q: What about the “Max fall in blood pressure” value (Rattus norvegicus [4]) of the same compound?
A: The value was 7.

Q: How did the “Max fall in blood pressure” value (Rattus norvegicus [4]) turn out when `CN/C(=N/C1=CC(C)(C)Oc2ccc(C#N)cc21)NC#N` was run?
A: The value was 17.

Q: And the “Max fall in blood pressure” value (Rattus norvegicus [6])?
A: Its value is 15.

Q: With `C/N=C(/NC#N)NC1c2cc(C#N)ccc2OC(C)(C)C1O` (single isomer, unassigned) as the compound, how does the “Max fall in blood pressure” value (Rattus norvegicus [3]) read?
A: Its value is 16.

Q: What about the “Max fall in blood pressure” value (Rattus norvegicus [4]) of the same compound?
A: The value was 41.

Q: Which “Max fall in blood pressure” value (Rattus norvegicus [4]) does the source give for `C/N=C(/NC#N)NC1c2cnccc2OC(C)(C)[C@H]1O` (stereo not given in full) here?
A: The value was 25.

Q: `CC1(C)Oc2ccc(C#N)cc2C(/N=C(/N)NC#N)C1O` (single isomer, unassigned) was tested. Which “Max fall in blood pressure” value (Rattus norvegicus [3]) did it give?
A: The value was 24.

Q: What about the “Max fall in blood pressure” value (Rattus norvegicus [4]) of the same compound?
A: Its value is 48.

Q: What does the source list for `CC1(C)Oc2ccc(C#N)cc2C(N2CCCC2=O)[C@H]1O` (stereo not given in full) [CROMAKALIM]?
A: Max fall in blood pressure (Rattus norvegicus [3]): 39; Max fall in blood pressure (Rattus norvegicus [4]): 47; Max fall in blood pressure (Rattus norvegicus [5]): 13
